# Tests used:
# [1] = biological target: T1, long isoform of human D2 receptor (Homo sapiens, UniProt P14416); test: cAMP HTRF Agonist Assay (DRD2L PathHunter CHO-K1 cells, forskolin-stimulated)
# Procedure: Cell Lines: Activities of the compounds were assessed using a Chinese Hamster Ovary (CHO—K1) cell line that recombinantly expressed the long isoform of human D2 receptor (DRD2L PathHunter cells). The D2 receptor DNA sequence was modified to contain a “ProLink” at its C-terminus which allowed complementation with an “enzyme acceptor” (EA)-tagged β-arrestin protein. The recruitment of the O-arrestin by the D2 receptor led to complementation of the ProLink and EA and formation of active β-galactosidase which generated a D2-specific signal that was measured. The cAMP assay was measured in the same D2-expressing cell line. The D2 receptor inhibited cAMP formation so that the basal levels of cAMP were increased by the addition of an adenylate cyclase stimulator, forskolin.
# cAMP HTRF Agonist Assay: Two days prior to testing, a vial of high density stock of DRD2L PathHunter cells was thawed, and cells were diluted into 10 mL of growth media (Ham's F12/10% HI FBS/1% PSG) and used to seed a T225 flask containing 50 mL of growth media. Cells were cultured for 2 days.
# On the day of the assay, cells were dissociated in 5 mL cell dissociation buffer (enzyme free—Invitrogen) for 10-15 minutes at 37° C. Dissociated cells were diluted with 10 mL of growth media and counted. Cell counts were routinely ˜2×10^7 per T225. Cells were then pelleted at 1500 rpm for 5 min. Supernatant was aspirated, and cells were re-suspended in HBSS/20 mM Hepes, pH 7.4 to a cell density of 1×10^6/mL.
# cAMP levels were determined using the Cisbio HTRF method. HRTF reagents (cAMP-HTRF acceptor fluorophore (d2) conjugate and cryptate-labeled anti-cAMP antibody) were prepared according to maunfacturers instructions. 5 μL of each were added to each well of an assay plate and incubated for 1 h at RT. The plate was then read on an Envision reader using the HTRF protocol, and data were exported for analysis.
# (§1) The agonist Emax results were expressed as a percent of the dopamine control response ((measured specific response/control specific agonist response)×100) obtained in the presence of test article. The EC50 values (concentration producing a half-maximal specific response) were determined by non-linear regression analysis of the concentration-response curves.
# [2] = biological target: T1, long isoform of human D2 receptor; test: Arrestin Antagonist Assay (DRD2L PathHunter CHO-K1 cells, vs EC80 dopamine); conditions: for Emax: CHO-K1, read-out: β-arrestin (antagonist mode) Imax
# [3] = biological target: T1, long isoform of human D2 receptor; test: Arrestin Agonist Assay (DRD2L PathHunter CHO-K1 cells, β-arrestin recruitment)
# Procedure: Cell Lines: Activities of the compounds were assessed using a Chinese Hamster Ovary (CHO—K1) cell line that recombinantly expressed the long isoform of human D2 receptor (DRD2L PathHunter cells). The D2 receptor DNA sequence was modified to contain a “ProLink” at its C-terminus which allowed complementation with an “enzyme acceptor” (EA)-tagged β-arrestin protein. The recruitment of the O-arrestin by the D2 receptor led to complementation of the ProLink and EA and formation of active β-galactosidase which generated a D2-specific signal that was measured.
# Arrestin Agonist Assay: One day prior to testing, a vial of high density stock of DRD2L PathHunter cells was thawed, and 1×10^7 cells diluted into 40 mL of growth media (Ham's F12/10% HI FBS/1% PSG). 20 μL cells per well were seeded directly into assay plates, and the plates were allowed to rest for 1 h at RT before incubating in a plate incubator overnight.
# 5 μL diluted compound was added to cells in each well, and the assay plate was incubated for 90 min at 37° C. 12.5 μL PathHunter detection reagent was added to each well of the assay plate, which was then covered and incubated for 1 h at RT. The plate was read on an Envision reader using the Luminescence protocol, and the data were exported for analysis.
# as §1
# [4] = CHO-K1, read-out: cAMP (agonist mode) Emax
# [5] = CHO-K1, read-out: β-arrestin (agonist mode) Emax
# [6] = CHO-K1, read-out: Emax in cAMP agonist assay
# [7] = CHO-K1, read-out: Emax in β-arrestin agonist assay
# T1 sequence (P14416 whole entry, canonical isoform): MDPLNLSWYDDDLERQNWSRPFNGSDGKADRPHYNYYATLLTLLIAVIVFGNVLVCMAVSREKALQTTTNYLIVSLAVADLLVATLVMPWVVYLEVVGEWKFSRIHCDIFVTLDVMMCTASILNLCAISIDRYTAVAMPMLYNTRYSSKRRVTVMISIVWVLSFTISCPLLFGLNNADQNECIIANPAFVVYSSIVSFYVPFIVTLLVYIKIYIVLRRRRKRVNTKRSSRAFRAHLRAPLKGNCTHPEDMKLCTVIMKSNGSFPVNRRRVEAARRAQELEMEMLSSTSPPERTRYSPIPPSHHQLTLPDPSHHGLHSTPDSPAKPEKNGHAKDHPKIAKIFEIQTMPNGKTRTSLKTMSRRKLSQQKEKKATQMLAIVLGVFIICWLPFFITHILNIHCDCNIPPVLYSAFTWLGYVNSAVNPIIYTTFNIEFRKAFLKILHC
"Emax [1, 6] [%]","Emax [3, 7] [%]",SMILES,IC50 [1] [nM],"Emax [1, 4] [%]",IC50 [2] [nM],Emax [2] [%],EC50 [3] [nM],"Emax [3, 5] [%]"
–,–,"O=c1ccc2ccc(OCCCCN3CCc4nn(-c5ccccn5)cc4C3)nc2[nH]1 [Compound 67, 7-(4-(2-(pyridin-2-yl)-6,7-dihydro-2H-pyrazolo[4,3-c]pyridin-5(4H)-yl)butoxy)-1,8-naphthyridin-2(1H)-one]",10 to 100,10 to 25,100 to 1000,> 75,> 10000,< 10
–,–,"c1ccc2c(N3CCN(CCCCOc4ccc5cn[nH]c5n4)CC3)cccc2c1 [Compound 2, 6-(4-(4-(naphthalen-1-yl)piperazin-1-yl)butoxy)-1H-pyrazolo[3,4-b]pyridine]",10 to 100,10 to 25,100 to 1000,50 to 75,10 to 100,10 to 25
–,–,"O=C1NCCc2ccc(OCCCCN3CCc4ccccc4C3)nc2N1 [Compound 83, 8-(4-(3,4-dihydroisoquinolin-2(1H)-yl)butoxy)-4,5-dihydro-1H-pyrido[2,3-d][1,3]diazepin-2(3H)-one]",> 10000,< 10,10 to 100,> 75,> 10000,< 10
–,–,"Clc1cccc(N2CCN(CCCCOc3ccc4cn[nH]c4c3)CC2)c1 [Compound 98, 6-(4-(4-(3-chlorophenyl)piperazin-1-yl)butoxy)-1H-indazole]",10 to 100,50 to 75,100 to 1000,25 to 50,10 to 100,25 to 50
–,–,"CS(=O)(=O)Nc1cccc(OCCCCN2CCc3ccccc3C2)n1 [Compound 42, N-(6-(4-(3,4-dihydroisoquinolin-2(1H)-yl)butoxy)pyridin-2-yl)methanesulfonamide]",> 10000,< 10,1000 to 10000,> 75,> 10000,< 10
–,–,"Clc1cccc(N2CCN(CCCCOc3cccc(-c4cc[nH]n4)n3)CC2)c1Cl [Compound 46, 1-(4-((6-(1H-pyrazol-3-yl)pyridin-2-yl)oxy)butyl)-4-(2,3-dichlorophenyl)piperazine]",< 10,50 to 75,< 10,50 to 75,< 10,10 to 25
≥ 90,≥ 90,"CCCN(CCC)CCc1cccc2c1CC(=O)N2 [ropinirole, reference compound]",–,–,–,–,–,–
–,–,"O=C1CCc2ccc(OCCCCN3CCc4sccc4C3)cc2N1 [Compound 27, 7-(4-(6,7-dihydrothieno[3,2-c]pyridin-5(4H)-yl)butoxy)-3,4-dihydroquinolin-2(1H)-one]",< 10,10 to 25,10 to 100,> 75,> 10000,< 10
–,–,"O=C1NCCc2ccc(OCCCCN3CCc4nn(-c5ccccc5)cc4C3)nc2N1 [Compound 89, 8-(4-(2-phenyl-6,7-dihydro-2H-pyrazolo[4,3-c]pyridin-5(4H)-yl)butoxy)-4,5-dihydro-1H-pyrido[2,3-d][1,3]diazepin-2(3H)-one]",10 to 100,25 to 50,10 to 100,50 to 75,10 to 100,25 to 50
–,–,"N#Cc1ccc2c(c1)CCN(CCCCOc1ccc3c(n1)NC(=O)CC3)C2 [Compound 73, 2-(4-((7-oxo-5,6,7,8-tetrahydro-1,8-naphthyridin-2-yl)oxy)butyl)-1,2,3,4-tetrahydroisoquinoline-6-carbonitrile]",> 10000,< 10,100 to 1000,> 75,> 10000,< 10
–,–,"O=C1CCc2ccc(OCCCCN3CCc4ccsc4C3)cc2N1 [Compound 28, 7-(4-(4,5-dihydrothieno[2,3-c]pyridin-6(7H)-yl)butoxy)-3,4-dihydroquinolin-2(1H)-one]",< 10,10 to 25,100 to 1000,> 75,> 10000,< 10
–,–,"c1ccc2c(N3CCN(CCCCOc4ccc5cn[nH]c5c4)CC3)cccc2c1 [Compound 92, 6-(4-(4-(naphthalen-1-yl)piperazin-1-yl)butoxy)-1H-indazole]",10 to 100,25 to 50,10 to 100,50 to 75,< 10,25 to 50
–,–,"O=C1CCc2ccc(OCCCCN3CCc4nn(-c5ccccc5)cc4C3)nc2N1 [Compound 82, 7-(4-(2-phenyl-6,7-dihydro-2H-pyrazolo[4,3-c]pyridin-5(4H)-yl)butoxy)-3,4-dihydro-1,8-naphthyridin-2(1H)-one]",> 10000,< 10,100 to 1000,> 75,> 10000,< 10
–,–,"N#Cc1cccc2c1CN(CCCCOc1ccc3ccc(=O)[nH]c3n1)CC2 [Compound 64, 2-(4-((7-oxo-7,8-dihydro-1,8-naphthyridin-2-yl)oxy)butyl)-1,2,3,4-tetrahydroisoquinoline-8-carbonitrile]",< 10,25 to 50,10 to 100,> 75,< 10,10 to 25
–,–,"O=C1NCCc2ccc(OCCCCN3CCc4cc(F)ccc4C3)nc2N1 [Compound 84, 8-(4-(6-fluoro-3,4-dihydroisoquinolin-2(1H)-yl)butoxy)-4,5-dihydro-1H-pyrido[2,3-d][1,3]diazepin-2(3H)-one]",> 10000,< 10,10 to 100,> 75,> 10000,< 10
–,–,"Oc1cccc2ccc(OCCCCN3CCN(c4cccc(Cl)c4Cl)CC3)nc12 [Compound 5, 2-(4-(4-(2,3-dichlorophenyl)piperazin-1-yl)butoxy)quinolin-8-ol]",10 to 100,25 to 50,100 to 1000,> 75,10 to 100,10 to 25
–,–,"O=c1ccc2ccc(OCCCCN3CCc4cc(Cl)ccc4C3)nc2[nH]1 [Compound 59, 7-(4-(6-chloro-3,4-dihydroisoquinolin-2(1H)-yl)butoxy)-1,8-naphthyridin-2(1H)-one]",< 10,10 to 25,< 10,> 75,> 10000,< 10
≥ 90,≥ 90,"CCCN[C@H]1CCc2nc(N)sc2C1 [pramipexole, reference compound]",–,–,–,–,–,–
–,–,"CCOc1ccccc1N1CCN(CCCCOc2cccc(-c3cc[nH]n3)n2)CC1 [Compound 49, 1-(4-((6-(1H-pyrazol-3-yl)pyridin-2-yl)oxy)butyl)-4-(2-ethoxyphenyl)piperazine]",< 10,50 to 75,< 10,50 to 75,< 10,10 to 25
–,–,"CC(=O)Nc1cccc(OCCCCN2CCc3ccccc3C2)n1 [Compound 40, N-(6-(4-(3,4-dihydroisoquinolin-2(1H)-yl)butoxy)pyridin-2-yl)acetamide]",> 10000,< 10,100 to 1000,> 75,> 10000,< 10
–,–,"COc1cccnc1N1CCN(CCCCOc2cccc(-c3cc[nH]n3)n2)CC1 [Compound 47, 1-(4-((6-(1H-pyrazol-3-yl)pyridin-2-yl)oxy)butyl)-4-(3-methoxypyridin-2-yl)piperazine]",< 10,50 to 75,< 10,50 to 75,< 10,10 to 25

# Source: patent US9951088B2, “D2 receptor modulators and methods of use thereof in the treatment of diseases and disorders” (SUNOVION PHARMACEUTICALS INC., priority 2012, dated 2018)
